Tested on: Male Sprague-Dawley rats
Experiment: Locomotor activity
Format: in vivo, rat
Details: for Locomotor Activity Day 1, mean distance traveled: 60-min session

COC(=O)C(c1ccccc1)C1CCCCN1 (stereo not drawn) [MPD, Methylphenidate]
time course of locomotor activity compared to saline-treated rats (Day 1, EC rats, MPD 3 mg/kg): significantly greater during the 25–60-min intervals
time course of locomotor activity compared to saline-treated rats (Day 1, EC rats, MPD 10 mg/kg): significantly greater during the 20–60-min intervals
time course of locomotor activity compared to saline-treated rats (Day 1, IC rats, MPD 3 mg/kg): significantly greater during the 30-, 50- and 60-min intervals
time course of locomotor activity compared to saline-treated rats (Day 1, IC rats, MPD 10 mg/kg): significantly greater during the 15–60-min intervals
time course of locomotor activity compared to saline-treated rats (Day 1, SC rats, MPD 3 mg/kg): more active than saline-treated SC rats during the 30–60-min time intervals
time course of locomotor activity compared to saline-treated rats (Day 1, SC rats, MPD 10 mg/kg): more active than saline-treated SC rats during the 15–60-min time intervals
time course of locomotor activity compared to saline-treated rats (Day 10, EC rats, MPD 3 mg/kg): only IC rats treated with 3 mg/kg of MPD displayed greater activity
time course of locomotor activity compared to saline-treated rats (Day 10, EC rats, MPD 10 mg/kg): more active than the saline controls during each time interval
time course of locomotor activity compared to saline-treated rats (Day 10, IC rats, MPD 3 mg/kg): significantly greater activity in IC rats relative to saline controls beginning at the 30-min time interval
time course of locomotor activity compared to saline-treated rats (Day 10, IC rats, MPD 10 mg/kg): more active than the saline controls during each time interval except the 5-min interval in the IC group
time course of locomotor activity compared to saline-treated rats (Day 10, SC rats, MPD 3 mg/kg): more active than saline-treated SC rats during the 10–60-min time intervals
time course of locomotor activity compared to saline-treated rats (Day 10, SC rats, MPD 10 mg/kg): more active than saline-treated SC rats during the 10–60-min time intervals
total locomotor activity across Days 1–10 compared with Day 1 (EC rats, MPD 3 mg/kg once daily): greater locomotor activity on Day 2 than on Day 1
Locomotor Activity Day 10, mean distance traveled (EC rats, MPD 3 mg/kg s.c. once daily): 4438 cm
Locomotor Activity Day 1, mean distance traveled (EC rats, MPD 3 mg/kg s.c.): 9482 cm
total locomotor activity across Days 1–10 compared with Day 1 (EC rats, MPD 10 mg/kg once daily): greater locomotor activity on Days 4, 5 and 10 than on Day 1
Locomotor Activity Day 10, mean distance traveled (EC rats, MPD 10 mg/kg s.c. once daily): 29196 cm
Locomotor Activity Day 1, mean distance traveled (EC rats, MPD 10 mg/kg s.c.): 15665 cm
total locomotor activity across Days 1–10 compared with Day 1 (IC rats, MPD 3 mg/kg once daily): greater locomotor activity on Days 2–9 than on Day 1
Locomotor Activity Day 10, mean distance traveled (IC rats, MPD 3 mg/kg s.c. once daily): 13980 cm
Locomotor Activity Day 1, mean distance traveled (IC rats, MPD 3 mg/kg s.c.): 9775 cm
total locomotor activity across Days 1–10 compared with Day 1 (IC rats, MPD 10 mg/kg once daily): no significant main effect of Day
Locomotor Activity Day 10, mean distance traveled (IC rats, MPD 10 mg/kg s.c. once daily): 28531 cm
Locomotor Activity Day 1, mean distance traveled (IC rats, MPD 10 mg/kg s.c.): 20653 cm
total locomotor activity across Days 1–10 compared with Day 1 (SC rats, MPD 3 mg/kg once daily): activity on Days 2–10 was greater than activity on Day 1
Locomotor Activity Day 10, mean distance traveled (SC rats, MPD 3 mg/kg s.c. once daily): 23675 cm
Locomotor Activity Day 1, mean distance traveled (SC rats, MPD 3 mg/kg s.c.): 15020 cm
total locomotor activity across Days 1–10 compared with Day 1 (SC rats, MPD 10 mg/kg once daily): locomotor activity on Days 3, 5–7 and 10 was greater than that on Day 1
Locomotor Activity Day 10, mean distance traveled (SC rats, MPD 10 mg/kg s.c. once daily): 31954 cm
Locomotor Activity Day 1, mean distance traveled (SC rats, MPD 10 mg/kg s.c.): 22406 cm

From publication PMC3062741 (Behavioural brain research, 2011)
